Data published in ChEMBL document CHEMBL1221311, “The synthesis and structure-activity relationship of 4-benzimidazolyl-piperidinylcarbonyl-piperidine analogs as histamine H3 antagonists” (Bioorg Med Chem Lett, 2010).
pIC50, pKi: −log10 of the molar value.

Key:
[1] = molecular target: Histamine H3 receptor (Cavia porcellus) (UniProt Q9JI35); assay: Displacement of [3H]Nalpha-methylhistamine from histamine H3 receptor in guinea pig brain at 1 uM
Histamine H3 receptor = Histamine H3 receptor (Cavia porcellus, UniProt Q9JI35); assay: Displacement of [3H]Nalpha-methylhistamine from histamine H3 receptor in guinea pig brain
Histamine H3 receptor, sequence (Q9JI35 whole entry): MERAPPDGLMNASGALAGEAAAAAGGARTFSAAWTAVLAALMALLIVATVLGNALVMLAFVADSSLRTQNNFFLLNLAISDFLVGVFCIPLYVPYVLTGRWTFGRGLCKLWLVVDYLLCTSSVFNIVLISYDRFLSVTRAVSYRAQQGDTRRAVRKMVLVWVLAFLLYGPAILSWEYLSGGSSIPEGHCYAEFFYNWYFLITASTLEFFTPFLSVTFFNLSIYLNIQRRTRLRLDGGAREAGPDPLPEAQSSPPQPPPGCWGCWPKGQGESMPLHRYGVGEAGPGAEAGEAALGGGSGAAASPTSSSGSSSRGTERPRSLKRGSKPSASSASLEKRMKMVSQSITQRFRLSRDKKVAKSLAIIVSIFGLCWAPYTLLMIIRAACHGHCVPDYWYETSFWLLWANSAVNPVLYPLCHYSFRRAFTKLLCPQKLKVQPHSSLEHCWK

Cytochrome P450 3A4 = Cytochrome P450 3A4 (Homo sapiens, UniProt P08684); assay: Inhibition of CYP3A4 in human liver microsomes; assay type: ADME, Microsome
Cytochrome P450 3A4, sequence (P08684 whole entry): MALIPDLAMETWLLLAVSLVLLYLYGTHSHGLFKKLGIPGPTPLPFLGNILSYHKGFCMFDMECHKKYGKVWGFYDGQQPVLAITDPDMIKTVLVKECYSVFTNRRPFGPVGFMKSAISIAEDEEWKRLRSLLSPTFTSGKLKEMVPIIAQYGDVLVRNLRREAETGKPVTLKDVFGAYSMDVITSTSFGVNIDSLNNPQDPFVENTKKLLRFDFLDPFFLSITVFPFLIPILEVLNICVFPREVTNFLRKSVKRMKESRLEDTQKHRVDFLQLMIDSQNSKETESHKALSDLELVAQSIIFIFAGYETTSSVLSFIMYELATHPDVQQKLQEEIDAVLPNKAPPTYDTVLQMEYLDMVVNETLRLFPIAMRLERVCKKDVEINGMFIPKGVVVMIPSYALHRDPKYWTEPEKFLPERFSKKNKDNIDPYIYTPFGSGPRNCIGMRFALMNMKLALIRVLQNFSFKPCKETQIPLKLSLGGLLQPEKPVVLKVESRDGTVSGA

Cytochrome P450 2D6 = Cytochrome P450 2D6 (Homo sapiens, UniProt P10635); assay: Inhibition of CYP2D6 in human liver microsomes; assay type: ADME, Microsome
Cytochrome P450 2D6, sequence (P10635 whole entry): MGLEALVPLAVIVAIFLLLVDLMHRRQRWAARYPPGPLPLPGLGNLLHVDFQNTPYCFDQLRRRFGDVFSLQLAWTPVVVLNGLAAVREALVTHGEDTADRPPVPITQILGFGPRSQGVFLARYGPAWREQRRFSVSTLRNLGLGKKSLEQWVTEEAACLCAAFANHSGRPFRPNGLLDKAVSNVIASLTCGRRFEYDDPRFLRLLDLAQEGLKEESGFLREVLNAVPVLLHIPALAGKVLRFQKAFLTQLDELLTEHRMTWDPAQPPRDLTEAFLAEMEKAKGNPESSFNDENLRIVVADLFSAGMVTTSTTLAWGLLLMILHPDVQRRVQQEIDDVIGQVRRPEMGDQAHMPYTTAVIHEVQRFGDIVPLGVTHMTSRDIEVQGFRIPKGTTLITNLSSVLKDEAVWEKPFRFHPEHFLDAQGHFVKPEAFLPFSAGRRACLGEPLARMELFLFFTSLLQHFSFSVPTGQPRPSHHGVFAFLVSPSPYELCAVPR

Cavia porcellus = assay: Antihypertensive activity in po dosed guinea pig assessed as inhibition of (R)-alpha-methylhistamine-induced hypertension; assay type: functional
Cytochrome P450 2C9 = Cytochrome P450 2C9 (Homo sapiens, UniProt P11712); assay: Inhibition of CYP2C9 in human liver microsomes; assay type: ADME, Microsome
Cytochrome P450 2C9, sequence (P11712 whole entry): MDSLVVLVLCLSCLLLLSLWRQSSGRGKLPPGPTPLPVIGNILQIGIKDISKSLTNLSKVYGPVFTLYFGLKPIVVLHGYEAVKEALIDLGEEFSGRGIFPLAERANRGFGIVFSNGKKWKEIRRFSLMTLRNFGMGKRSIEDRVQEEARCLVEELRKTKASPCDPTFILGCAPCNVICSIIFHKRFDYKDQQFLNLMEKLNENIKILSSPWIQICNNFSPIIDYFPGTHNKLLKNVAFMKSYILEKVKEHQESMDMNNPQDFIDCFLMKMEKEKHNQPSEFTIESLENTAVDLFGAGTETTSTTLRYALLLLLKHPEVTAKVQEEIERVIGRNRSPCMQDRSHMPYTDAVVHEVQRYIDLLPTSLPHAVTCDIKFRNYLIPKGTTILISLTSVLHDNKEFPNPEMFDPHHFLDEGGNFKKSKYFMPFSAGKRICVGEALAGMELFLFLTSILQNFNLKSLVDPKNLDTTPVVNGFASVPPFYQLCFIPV

[2] = AUC in rat at 10 mg/kg, po; assay type: ADME, organism-based; parameters: dose 10 mg/kg, route oral; conditions: plasma
hERG (KCNH2) = hERG (KCNH2) (Homo sapiens, UniProt Q12809); assay: Inhibition of human ERG at 10 uM
hERG (KCNH2), sequence (Q12809 whole entry): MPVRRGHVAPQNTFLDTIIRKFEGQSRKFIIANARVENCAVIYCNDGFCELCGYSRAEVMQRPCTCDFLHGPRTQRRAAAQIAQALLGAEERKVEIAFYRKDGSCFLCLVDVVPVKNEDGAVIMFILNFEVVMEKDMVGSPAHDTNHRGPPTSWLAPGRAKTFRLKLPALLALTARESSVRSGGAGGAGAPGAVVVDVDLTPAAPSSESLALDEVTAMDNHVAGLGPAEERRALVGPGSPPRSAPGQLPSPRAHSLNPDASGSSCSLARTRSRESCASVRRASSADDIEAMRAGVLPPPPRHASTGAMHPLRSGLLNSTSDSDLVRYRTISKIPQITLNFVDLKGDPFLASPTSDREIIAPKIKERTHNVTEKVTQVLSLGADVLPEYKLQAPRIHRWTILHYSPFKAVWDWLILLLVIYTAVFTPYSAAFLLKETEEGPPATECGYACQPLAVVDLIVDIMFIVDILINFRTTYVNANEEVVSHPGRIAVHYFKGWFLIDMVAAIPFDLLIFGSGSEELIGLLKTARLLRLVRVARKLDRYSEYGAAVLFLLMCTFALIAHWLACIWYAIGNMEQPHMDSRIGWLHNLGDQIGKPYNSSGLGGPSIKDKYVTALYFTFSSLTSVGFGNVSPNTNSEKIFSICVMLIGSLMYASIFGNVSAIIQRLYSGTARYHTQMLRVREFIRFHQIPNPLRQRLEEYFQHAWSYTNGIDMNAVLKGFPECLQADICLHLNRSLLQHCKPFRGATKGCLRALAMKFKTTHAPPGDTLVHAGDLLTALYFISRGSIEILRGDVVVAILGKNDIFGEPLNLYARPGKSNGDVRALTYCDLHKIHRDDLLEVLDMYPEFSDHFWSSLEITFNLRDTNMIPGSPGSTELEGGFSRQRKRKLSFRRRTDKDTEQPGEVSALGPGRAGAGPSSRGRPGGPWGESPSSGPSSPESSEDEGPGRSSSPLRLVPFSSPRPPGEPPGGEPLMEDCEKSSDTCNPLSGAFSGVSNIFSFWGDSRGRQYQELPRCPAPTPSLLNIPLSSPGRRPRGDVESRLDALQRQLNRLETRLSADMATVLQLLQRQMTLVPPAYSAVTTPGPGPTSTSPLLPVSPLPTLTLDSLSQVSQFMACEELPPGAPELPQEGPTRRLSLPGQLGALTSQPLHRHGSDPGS

[3] = Clearance in rat hepatocytes assessed per million cells; assay type: ADME, cell-based, Liver, Hepatocyte
[4] = Clearance in human hepatocytes assessed per million cells; assay type: ADME, cell-based, Liver, Hepatocyte

Histamine H3 receptor (Cavia porcellus), sequence (Q9JI35 whole entry): as the sequence (Q9JI35 whole entry) above

Row | pKi (Histamine H3 receptor) | pIC50 (Cytochrome P450 3A4) | pIC50 (Cytochrome P450 2D6) | SMILES | also measured
1 | – | – | – | O=C(C1CCN(Cc2ccccn2)CC1)N1CCC(n2c(=O)[nH]c3ccccc32)CC1 | inhibition [1]: 40%
2 | 6.27 | – | – | O=C(C1CCN(CCc2ccncc2)CC1)N1CCC(n2c(=O)[nH]c3ccccc32)CC1 | –
3 | 8.70 | 6.52 | 5.38 | O=C(C1CCN(Cc2ccncc2)CC1)N1CCC(n2c(=O)n(Cc3cccc(Cl)c3)c3ccccc32)CC1 | –
4 | 9.70 | 6.40 | 5.04 | O=C(C1CCN(Cc2ccncc2)CC1)N1CCC(n2c(=O)n(Cc3ccccc3)c3ccccc32)CC1 | –
5 | 6.36 | – | – | O=C(C1CCN(Cc2cc[n+]([O-])cc2)CC1)N1CCC(n2c(=O)[nH]c3ccccc32)CC1 | –
6 | 7.77 | – | – | O=C(c1ccccc1)C1CCN(C(=O)C2CCN(Cc3ccncc3)CC2)CC1 | –
7 | 6.17 | – | – | O=C(C1CCN(Cc2ccnc3ccccc23)CC1)N1CCC(n2c(=O)[nH]c3ccccc32)CC1 | –
8 | 7.52 | – | – | O=C(C1CCN(Cc2ccncc2)CC1)N1CCC(O)(Cc2ccccc2)CC1 | –
9 | 9.40 | 5.82 | 5.72 | CC(C)Cn1c(=O)n(C2CCN(C(=O)C3CCN(Cc4ccncc4)CC3)CC2)c2ccccc21 | –
10 | 9.82 | 4.52 | 5.43 | O=C(C1CCN(Cc2ccncc2)CC1)N1CCC(n2c(=O)n(CCN3CCCCC3)c3ccccc32)CC1 | ED50 (Cavia porcellus): < 0.3 mg/kg; pIC50 (Cytochrome P450 2C9): < 4.70; AUC [2]: 0.24 µM·h; inhibition at 10 µM (hERG (KCNH2)): < 10%; hepatocyte CLint [3]: < 10 µL/min/1e6 cells; hepatocyte CLint [4]: < 10 µL/min/1e6 cells
11 | 9.10 | 4.97 | < 4.70 | CCOCCCn1c(=O)n(C2CCN(C(=O)C3CCN(Cc4ccncc4)CC3)CC2)c2ccccc21 | –
12 | 8.77 | 4.87 | < 4.70 | CCOCCn1c(=O)n(C2CCN(C(=O)C3CCN(Cc4ccncc4)CC3)CC2)c2ccccc21 | –
13 | 8.70 | 4.96 | < 4.70 | COCCn1c(=O)n(C2CCN(C(=O)C3CCN(Cc4ccncc4)CC3)CC2)c2ccccc21 | –
14 | 9.05 | 6.40 | 5.24 | O=C(C1CCN(Cc2ccncc2)CC1)N1CCC(n2c(=O)n(Cc3ccc(Cl)cc3)c3ccccc32)CC1 | –
15 | 7.70 | – | – | O=C(C1CCN(Cc2ccncc2)CC1)N1CCC2(CC1)C(=O)NCN2c1ccccc1 | –
16 | 6.69 | – | – | O=C(C1CCN(Cc2ccoc2)CC1)N1CCC(n2c(=O)[nH]c3ccccc32)CC1 | –
17 | 6.76 | – | – | O=C(C1CCN(Cc2cccnc2)CC1)N1CCC(n2c(=O)[nH]c3ccccc32)CC1 | –
18 | – | – | – | O=C(c1ccncc1)N1CCC(C(=O)N2CCC(n3c(=O)[nH]c4ccccc43)CC2)CC1 | inhibition [1]: 11%
19 | 9.02 | < 4.52 | < 4.70 | O=C(C1CCN(Cc2ccncc2)CC1)N1CCC(n2c(=O)n(CCO)c3ccccc32)CC1 | –
20 | 8.26 | – | – | O=C(C1CCN(Cc2ccncc2)CC1)N1CCC(Cc2ccccc2)CC1 | –
21 | 8.37 | 5.12 | < 4.70 | Cn1c(=O)n(C2CCN(C(=O)C3CCN(Cc4ccncc4)CC3)CC2)c2ccccc21 | –
22 | 9.70 | < 4.52 | 4.98 | CN(C)CCn1c(=O)n(C2CCN(C(=O)C3CCN(Cc4ccncc4)CC3)CC2)c2ccccc21 | ED50 (Cavia porcellus): < 0.3 mg/kg; pIC50 (Cytochrome P450 2C9): < 4.70; AUC [2]: 0.24 µM·h; inhibition at 10 µM (hERG (KCNH2)): < 10%; hepatocyte CLint [3]: < 10 µL/min/1e6 cells; hepatocyte CLint [4]: < 10 µL/min/1e6 cells

Row | pKi (Histamine H3 receptor) | pIC50 (Cytochrome P450 3A4) | pIC50 (Cytochrome P450 2D6) | SMILES | also measured
23 | 9.52 | 6.70 | 5.25 | COc1cccc(Cn2c(=O)n(C3CCN(C(=O)C4CCN(Cc5ccncc5)CC4)CC3)c3ccccc32)c1 | –
24 | 6.68 | – | – | COCCCNC(=O)c1cccc(CN2CCN(C(=O)C3CCN(Cc4ccncc4)CC3)CC2)c1 | –
25 | 6.45 | – | – | CN1CCN(C(=O)C2CCN(Cc3ccncc3)CC2)CC1 | –
26 | 7.40 | – | – | O=C(C1CCN(Cc2ccncc2)CC1)N1CCN(c2ccccc2)CC1 | –
27 | 8.20 | – | – | O=C(C1CCN(Cc2ccncc2)CC1)N1CCN(Cc2cccc(Cl)c2)CC1 | –
28 | – | – | – | Cn1cc(CN2CCC(C(=O)N3CCC(n4c(=O)[nH]c5ccccc54)CC3)CC2)c2ccccc21 | inhibition [1]: 30%
29 | 9.19 | 5.22 | < 4.70 | CC(C)OCCn1c(=O)n(C2CCN(C(=O)C3CCN(Cc4ccncc4)CC3)CC2)c2ccccc21 | –
30 | 6.74 | – | – | O=C(CC1CCN(Cc2ccncc2)CC1)N1CCC(n2c(=O)[nH]c3ccccc32)CC1 | –
31 | 7.70 | – | – | CC(c1ccncc1)N1CCC(C(=O)N2CCC(n3c(=O)[nH]c4ccccc43)CC2)CC1 (configuration not stated) | –
32 | 7.85 | – | – | O=C(C1CCN(Cc2ccncc2)CC1)N1CCN(C2CCCCC2)CC1 | –
33 | 9.30 | 4.52 | < 4.70 | O=C(C1CCN(Cc2ccncc2)CC1)N1CCC(n2c(=O)n(CCN3CCOCC3)c3ccccc32)CC1 | ED50 (Cavia porcellus): < 0.3 mg/kg; pIC50 (Cytochrome P450 2C9): < 4.70; AUC [2]: 0.24 µM·h; inhibition at 10 µM (hERG (KCNH2)): < 10%; hepatocyte CLint [3]: < 10 µL/min/1e6 cells; hepatocyte CLint [4]: < 10 µL/min/1e6 cells
34 | 8.35 | 6.30 | 5.17 | O=C(C1CCN(Cc2ccncc2)CC1)N1CCC(n2c(=O)n(Cc3ccccc3Cl)c3ccccc32)CC1 | –
35 | 7.55 | – | – | O=C(C1CCN(Cc2ccncc2)CC1)N1CCN(Cc2ccccc2)CC1 | –
36 | 9.60 | 6.40 | 4.70 | COc1ccc(Cn2c(=O)n(C3CCN(C(=O)C4CCN(Cc5ccncc5)CC4)CC3)c3ccccc32)cc1 | –
37 | 6.98 | – | – | O=C(C1CCN(Cc2ccsc2)CC1)N1CCC(n2c(=O)[nH]c3ccccc32)CC1 | –
38 | 8.70 | 5.05 | 4.70 | O=C(C1CCN(Cc2ccncc2)CC1)N1CCC(n2c(=O)n(CCOc3ccccc3)c3ccccc32)CC1 | –
39 | – | < 4.52 | 5.80 | CN(C)CCCn1c(=O)n(C2CCN(C(=O)C3CCN(Cc4ccncc4)CC3)CC2)c2ccccc21 | pIC50 (Cytochrome P450 2C9): < 4.70
40 | 6.65 | – | – | O=C(C1CCN(Cc2ccncc2Cl)CC1)N1CCC(n2c(=O)[nH]c3ccccc32)CC1 | –
41 | – | – | – | Cn1ccc(CN2CCC(C(=O)N3CCC(n4c(=O)[nH]c5ccccc54)CC3)CC2)c1 | inhibition [1]: 42%
42 | 7.77 | – | – | O=C(N1CCC(n2c(=O)[nH]c3ccccc32)CC1)N1CCN(Cc2ccncc2)CC1 | –
43 | 7.57 | – | – | O=C(NCCc1ccccc1)c1cccc(CN2CCN(C(=O)C3CCN(Cc4ccncc4)CC3)CC2)c1 | –

Row | SMILES | pKi (Histamine H3 receptor) | pIC50 (Cytochrome P450 3A4) | pIC50 (Cytochrome P450 2D6) | also measured
44 | O=C(C1CCN(Cc2ccncc2)CC1)N1CCC(n2c(=O)[nH]c3ccccc32)CC1 | 8.70 | 5.02 | < 4.70 | ED50 (Cavia porcellus): < 0.3 mg/kg; pIC50 (Cytochrome P450 2C9): < 4.70; AUC [2]: 0.24 µM·h; inhibition at 10 µM (hERG (KCNH2)): < 10%; hepatocyte CLint [3]: < 10 µL/min/1e6 cells; hepatocyte CLint [4]: < 10 µL/min/1e6 cells
45 | O=c1[nH]c2ccccc2n1C1CCN(CC2CCN(Cc3ccncc3)CC2)CC1 | 7.62 | – | – | –
